Test results published in patent US10144694B2, “Methods for preparing phenolic branched chain alkyl fatty acids or esters thereof and methods for killing microorganisms” (The United States of America, as Represented by the …, priority 2016, dated 2018).
≈ marks a conversion by molar mass, not a printed value. Like-named read-outs stand apart in the source and are kept apart here.

What was measured:
[1] = system: Listeria innocua ATCC 33090; assay: MIC/MBC micro-dilution; assay type: cell-based
[2] = system: Listeria innocua ATCC 33090; assay: Antimicrobial test, 5 min treatment, plate count; assay type: cell-based; conditions: 0.1%
Procedure: Since the solutions contained 10% of ethanol, ethanol (10%) along with water were used as references. The bacteria and the solutions were vortexed and incubated at ambient temperature ([…]) for 5 min before immediately being plated (diluted when needed) on TSA to determine the survival of the bacteria. After 24 h at 37° C., colonies on the plates were counted.
Statistical analysis: Data on antimicrobial test were subjected to statistical analysis using SAS Version 8.2 (SAS Institute, Cary, N.C.). The Duncan's multiple range test was used for the treatment effects.

[3] = Listeria innocua, ATCC33090, 24 h

Compound Cc1ccc(C(C)C)cc1O [Carvacrol] has an MBC ([1]; Listeria innocua, ATCC33090) of 454 µg/mL (≈ 3.03 mM) and an MIC [1, 3] of 233 to 454 µg/mL (≈ 1.55 to 3.03 mM).
With CCCCCCCC/C=C\CCCCCCCC(=O)O [OLA, oleic acid] the “Reduction of population of L. innocua” value [2] was 3.5 logs CFU/mL.
For Oc1ccccc1 [Phenol, phenol], the MBC ([1]; Listeria innocua, ATCC33090) was > 454 µg/mL, the MIC [1, 3] was > 454 µg/mL and the “Effect on population of L. innocua” value [2] was “no significant effect”.
Cc1ccc(C(C)C)c(O)c1 [Thymol] was tested, and the MIC ([1]; ATCC33090, Listeria innocua ATCC 33090, 24 h at 37° C., read-out: MIC) was 233 to 454 µg/mL (≈ 1.55 to 3.03 mM) and the MBC ([1]; ATCC33090, Listeria innocua ATCC 33090, read-out: MBC) was > 454 µg/mL.
